Assay results reported in patent US9079866B2, “Flap modulators” (JANSSEN PHARMACEUTICA NV, priority 2013, dated 2015).
pIC50: −log10 of the molar value. Structures can show the parent of a compound that is named as a salt.

tested on: leukotriene pathway in human whole blood (LTB4 levels); test: Human whole blood assay (A23187-stimulated LTB4); assay type: cell-based; details: Homo sapiens, human whole blood diluted 1:1, A23187-stimulated; read-out: LTB4 IC50 1:1
Experimental: The ability of the compounds of the present invention to treat a FLAP-mediated disease and/or disorder, or associated symptoms or complications thereof, was determined using the following procedures. Binding assay data represent the average value obtained from two different assay plates, with samples run in duplicate on each plate. Human whole blood assay data represent a single replicate on an assay plate using whole blood from at least one healthy donor.
An in vitro cellular assay was performed using human whole blood collected in heparin-containing tubes, which was used to test the ability of compounds to modulate the leukotriene pathway in human whole blood. The blood was diluted 1:1 in RPMI medium, pre-incubated for 15 min at 37° Celsius with test compounds at various concentrations, and then stimulated with calcium ionophore, A23187 (7 μg/mL), for 30 min at 37° Celsius. The samples were then centrifuged and plasma was removed. The plasma was diluted in assay buffer and LTB4 levels were measured using a commercial kit (Enzo Life Sciences). The concentration of each compound that was required for half-maximal inhibition (modulation) of recombinant enzyme activity (IC50) was calculated by a 4-parameter equation using the program GraphPad Prism (GraphPad software).

Question: With `Nc1cnc(-c2ccc(-c3ccccc3Oc3ncccn3)cc2F)cn1` [Example 526, 5-[3-Fluoro-2′-(pyrimidin-2-yloxy)biphenyl-4-yl]pyrazin-2-amine] as the compound, how does the pIC50 read?
Answer: 7.72

Question: `N#Cc1cc(Oc2ccccc2-c2ccc(-c3cnc(N)nc3)c(F)c2)ccn1` [Example 538, 4-{[4′-(2-Aminopyrimidin-5-yl)-3′-fluorobiphenyl-2-yl]oxy}pyridine-2-carbonitrile] was tested. Which pIC50 did it give?
Answer: 6.48

Question: How did the pIC50 turn out when `N#Cc1nc(N)cnc1-c1ccc(-c2ccccc2Oc2nccc(N)n2)cc1F` [Example 745, 6-Amino-3-{2′-[(4-aminopyrimidin-2-yl)oxy]-3-fluorobiphenyl-4-yl}pyrazine-2-carbonitrile] was run?
Answer: 6.96

Question: `N#Cc1nc(-c2ccc(-c3ccccc3S(=O)(=O)NCCO)cc2F)cnc1N` [Example 413, 4′-(5-Amino-6-cyanopyrazin-2-yl)-3′-fluoro-N-(2-hydroxyethyl)biphenyl-2-sulfonamide] was tested. Which pIC50 did it give?
Answer: 6.35

Question: `CC(O)CNS(=O)(=O)c1ccccc1-c1ccc(-c2cnc(N)c(C#N)n2)c(F)c1` (stereo in doubt) [Example 415, 4′-(5-Amino-6-cyanopyrazin-2-yl)-3′-fluoro-N-[(2R)-2-hydroxypropyl]biphenyl-2-sulfonamide] was tested. Which pIC50 did it give?
Answer: 7.43

Question: `Cc1nc(-c2ccc(-c3ccccc3S(N)(=O)=O)cc2F)cnc1N` [Example 446, 4′-(5-Amino-6-methylpyrazin-2-yl)-3′-fluorobiphenyl-2-sulfonamide] was tested. Which pIC50 did it give?
Answer: 5.86

Question: How did the pIC50 turn out when `N#Cc1nc(N)cnc1-c1ccc(-c2ccc(C(F)(F)F)cc2S(=O)(=O)N2CCNC(=O)C2)cc1F` [Example 715, 6-Amino-3-{3-fluoro-2′-[(3-oxopiperazin-1-yl)sulfonyl]-4′-(trifluoromethyl)biphenyl-4-yl}pyrazine-2-carbonitrile] was run?
Answer: 6.73

Question: `Nc1nc(-c2ccc(-c3ccccc3S(=O)(=O)N3CCCC3)cc2F)cs1` [Example 579, 4-[3-Fluoro-2′-(pyrrolidin-1-ylsulfonyl)biphenyl-4-yl]-1,3-thiazol-2-amine] was tested. Which pIC50 did it give?
Answer: 5.81

Question: `CC(C)(C)NS(=O)(=O)c1ccccc1-c1ccc(-c2cnc(N)nc2)c(F)c1F` [Example 466, 4′-(2-Aminopyrimidin-5-yl)-N-tert-butyl-2′,3′-difluorobiphenyl-2-sulfonamide trifluoroacetic acid salt] was tested. Which pIC50 did it give?
Answer: 6.00

Question: How did the pIC50 turn out when `CC(=O)NC1CCN(S(=O)(=O)c2ccccc2-c2ccc(-c3cnc(N)c(F)c3)c(F)c2)CC1` [Example 670, N-(1-((4′-(6-Amino-5-fluoropyridin-3-yl)-3′-fluoro-[1,1′-biphenyl]-2-yl)sulfonyl)piperidin-4-yl)acetamide] was run?
Answer: 6.28

Question: How did the pIC50 turn out when `Nc1cnc(-c2ccc(-c3cccnc3OC3CCCCC3)cc2F)cn1` [Example 403, 5-{4-[2-(Cyclohexyloxy)pyridin-3-yl]-2-fluorophenyl}pyrazin-2-amine] was run?
Answer: 6.41

Question: With `CC1CN(C(=O)c2ccccc2-c2ccc(-c3cnc(N)cn3)c(F)c2)CC(C)O1` (mixture of isomers) [Example 773, 5-{2′-[(2,6-Dimethylmorpholin-4-yl)carbonyl]-3-fluorobiphenyl-4-yl}pyrazin-2-amine (diastereoisomeric mixture)] as the compound, how does the pIC50 read?
Answer: 6.19

Question: `Fc1cc(-c2cccnc2OCC2CC2)ccc1-c1cnc2[nH]ccc2n1` [Example 400, 2-{4-[2-(Cyclopropylmethoxy)pyridin-3-yl]-2-fluorophenyl}-5H-pyrrolo[2,3-b]pyrazine] was tested. Which pIC50 did it give?
Answer: 6.14

Question: `CS(=O)(=O)c1cc(F)ccc1-c1ccc(-c2cnc3[nH]ccc3n2)c(F)c1` [Example 489, 2-[3,4′-Difluoro-2′-(methylsulfonyl)biphenyl-4-yl]-5H-pyrrolo[2,3-b]pyrazine] was tested. Which pIC50 did it give?
Answer: 6.51

Question: With `Nc1cnc(-c2ccc(-c3ccc(C(F)(F)F)cc3Oc3ncccn3)cc2F)cn1` [Example 551, 5-[3-Fluoro-2′-(pyrimidin-2-yloxy)-4′-(trifluoromethyl)biphenyl-4-yl]pyrazin-2-amine] as the compound, how does the pIC50 read?
Answer: 7.68

Question: `CC(C)(C)NS(=O)(=O)c1ccccc1-c1ccc(-c2cnc(N)c(F)c2)c(F)c1` [Example 430, 4′-(6-Amino-5-fluoropyridin-3-yl)-N-tert-butyl-3′-fluorobiphenyl-2-sulfonamide] was tested. Which pIC50 did it give?
Answer: 7.23

Question: `CC(C)(C(N)=O)S(=O)(=O)c1ccccc1-c1ccc(-c2cnc(N)cn2)c(F)c1` [Example 736, 2-{[4′-(5-Aminopyrazin-2-yl)-3′-fluorobiphenyl-2-yl]sulfonyl}-2-methylpropanamide] was tested. Which pIC50 did it give?
Answer: 6.38

Question: `CCC(C)S(=O)(=O)c1ncccc1-c1ccc(-c2cnc(N)cn2)c(F)c1` (racemic) [Example 814, racemic 5-(4-(2-(sec-Butylsulfonyl)pyridin-3-yl)-2-fluorophenyl)pyrazin-2-amine formate] was tested. Which pIC50 did it give?
Answer: 7.68

same assay, conditions: Homo sapiens, human whole blood diluted 1:1 in RPMI, A23187-stimulated LTB4; read-out: LTB4 IC50 1:1

Question: With `Nc1cnc(-c2ccc(-c3ccccc3S(=O)(=O)NC3(CO)CCCC3)cc2F)cn1` [Example 179, 4′-(5-Aminopyrazin-2-yl)-3′-fluoro-N-[1-(hydroxymethyl)cyclopentyl]biphenyl-2-sulfonamide] as the compound, how does the pIC50 read?
Answer: 8.70

Question: With `Nc1ncc(-c2ccc(-c3ccccc3S(=O)(=O)N3CCCC3)cc2F)cn1` [Example 298, 5-[3-Fluoro-2′-(pyrrolidin-1-ylsulfonyl)biphenyl-4-yl]pyrimidin-2-amine trifluoroacetic acid salt] as the compound, how does the pIC50 read?
Answer: 5.93

Question: How did the pIC50 turn out when `Nc1cnc(-c2ccc(-c3ccccc3S(=O)(=O)N3C[C@H](O)[C@@H](N4CCOCC4)C3)cc2F)cn1` (racemic) [Example 187, Racemic-1-{[4′-(5-Aminopyrazin-2-yl)-3′-fluorobiphenyl-2-yl]sulfonyl}-4-morpholin-4-ylpyrrolidin-3-ol trifluoroacetic acid salt] was run?
Answer: 7.16

Question: How did the pIC50 turn out when `Nc1ncc(-c2ccc(-c3ccccc3S(=O)(=O)Cc3nc(C4CC4)no3)cc2F)cn1` [Example 321, 5-(2′-{[(3-Cyclopropyl-1,2,4-oxadiazol-5-yl)methyl]sulfonyl}-3-fluorobiphenyl-4-yl)pyrimidin-2-amine] was run?
Answer: 5.07

Question: With `CSc1ccc(F)cc1-c1ccc(-c2cnc3[nH]ccc3n2)c(F)c1` [Example 383, 2-[3,5′-Difluoro-2′-(methylsulfanyl)biphenyl-4-yl]-5H-pyrrolo[2,3-b]pyrazine] as the compound, how does the pIC50 read?
Answer: 5.79

Question: `Nc1cnc(-c2ccc(-c3ccccc3S(=O)(=O)NC3Cc4ccccc4C3)cc2F)cn1` [Example 21, 4′-(5-Aminopyrazin-2-yl)-N-(2,3-dihydro-1H-inden-2-yl)-3′-fluorobiphenyl-2-sulfonamide] was tested. Which pIC50 did it give?
Answer: 7.46

Question: How did the pIC50 turn out when `Nc1cnc(-c2ccc(-c3ccccc3S(=O)(=O)NCCCO)cc2F)cn1` [Example 80, 4′-(5-Aminopyrazin-2-yl)-3′-fluoro-N-(3-hydroxypropyl)biphenyl-2-sulfonamide] was run?
Answer: 7.06

Question: How did the pIC50 turn out when `NS(=O)(=O)c1ccccc1-c1ccc(-c2cnc3[nH]ccc3c2)c(F)c1` [Example 368, 3′-Fluoro-4′-(1H-pyrrolo[2,3-b]pyridin-5-yl)biphenyl-2-sulfonamide] was run?
Answer: 6.75

Question: With `Nc1cnc(-c2ccc(-c3ccc(C(F)(F)F)cc3S(=O)(=O)NCCO)cc2F)cn1` [Example 210, 4′-(5-Aminopyrazin-2-yl)-3′-fluoro-N-(2-hydroxyethyl)-4-(trifluoromethyl)biphenyl-2-sulfonamide] as the compound, how does the pIC50 read?
Answer: 7.70

Question: With `Nc1cnc(-c2ccc(-c3ccccc3S(=O)(=O)N3CCN(c4cnccn4)CC3)cc2F)cn1` [Example 176, 5-{3-Fluoro-2′-[(4-pyrazin-2-ylpiperazin-1-yl)sulfonyl]biphenyl-4-yl}pyrazin-2-amine] as the compound, how does the pIC50 read?
Answer: 8.00

Question: With `CN1CCN([C@@H]2CN(S(=O)(=O)c3ccccc3-c3ccc(-c4cnc(N)cn4)c(F)c3)C[C@H]2O)CC1` (racemic) [Example 188, Racemic-1-{[4′-(5-Aminopyrazin-2-yl)-3′-fluorobiphenyl-2-yl]sulfonyl}-4-(4-methylpiperazin-1-yl)-pyrrolidin-3-ol trifluoroacetic acid salt] as the compound, how does the pIC50 read?
Answer: 5.93

Question: How did the pIC50 turn out when `CCSc1ccccc1-c1ccc(-c2cnc3[nH]ccc3n2)c(F)c1` [Example 384, 2-[2′-(Ethylsulfanyl)-3-fluorobiphenyl-4-yl]-5H-pyrrolo[2,3-b]pyrazine] was run?
Answer: 7.09

Question: How did the pIC50 turn out when `C[C@@H]([C@@H](O)c1ccccc1)N(C)S(=O)(=O)c1ccccc1-c1ccc(-c2cnc(N)cn2)c(F)c1` [Example 118, 4′-(5-aminopyrazin-2-yl)-3′-fluoro-N-((1S,2S)-1-hydroxy-1-phenylpropan-2-yl)-N-methyl-[1,1′-biphenyl]-2-sulfonamide] was run?
Answer: 8.22

Question: How did the pIC50 turn out when `CC(NS(=O)(=O)c1ccccc1-c1ccc(-c2cnc3[nH]ccc3n2)c(F)c1)C(F)(F)F` (racemic) [Example 376, racemic 3′-Fluoro-4′-(5H-pyrrolo[2,3-b]pyrazin-2-yl)-N-(2,2,2-trifluoro-1-methylethyl)biphenyl-2-sulfonamide] was run?
Answer: 8.00

Question: `Nc1cnc(-c2ccc(-c3ccccc3S(=O)(=O)N[C@H]3CCCC[C@@H]3CO)cc2F)cn1` (racemic) [Example 121, racemic (trans)-4′-(5-Aminopyrazin-2-yl)-3′-fluoro-N-[2-(hydroxymethyl)cyclohexyl]biphenyl-2-sulfonamide] was tested. Which pIC50 did it give?
Answer: 8.00

Question: How did the pIC50 turn out when `Nc1cnc(-c2ccc(-c3ccccc3S(=O)(=O)N3CC[C@@H](N)C3)cc2F)cn1` [Example 92, (R)-5-(2′-((3-Aminopyrrolidin-1-yl)sulfonyl)-3-fluoro-[1,1′-biphenyl]-4-yl)pyrazin-2-amine] was run?
Answer: 6.65

Question: How did the pIC50 turn out when `CC(C)(C)OC(=O)N1CC(O)(CNS(=O)(=O)c2ccccc2-c2ccc(-c3ccc(N)nc3)c(F)c2)C1` [Example 357, tert-Butyl 3-((4′-(6-aminopyridin-3-yl)-3′-fluoro-[1,1′-biphenyl]-2-ylsulfonamido)methyl)-3-hydroxyazetidine-1-carboxylate] was run?
Answer: 5.95
